According to patent publication US7381401B2, “T cell anergy is reversed by active Ras and regulated by diacylglycerol kinase” (The University of Chicago, priority 2004, dated 2008):

Legend:
[1] = test system: CAR transgenic Th1 clones; assay: IL-2 production by CAR transgenic Th1 clones overexpressing DGK isoforms; assay type: cell-based, mouse
Experimental: Adenoviral vectors. The CA H-Ras mutant Ras61L cDNA was provided by Dr. F. Fitch (University of Chicago). Construction of recombinant adenoviral vectors was performed using a two-cosmid system protocol described by Wang et al. (2000). Briefly, a gene expression unit containing a human ubiquitin promoter and either HRas61L, GFP, DGKα, kinase-dead DGKα, DGKζ, or no cDNA was inserted into a left-end plasmid, pLEP. pLEPUb-Ras61L and the right-end-plasmid, pREP, containing the E-deleted adenovirus type 2 (Ad2) genome, were digested, ligated and resulting cosmids were packaged into lambda phages. The DGKα kinase-dead DGKα, and DGKζ inserts also have a myc epitope tag. Competent bacteria were transduced with lambda phages and double selection of growing colonies was performed on Amp/Tet plates. Recombinant adenoviruses were then generated by transfection of 293 cells with purified, linearized adenoviral vector DNA. High titer stock solutions were obtained by large-scale infection of 293 cells followed by cesium chloride purification of complete viral particles. Plaque forming units (pfu) of virus preparations were determined by TCID 50 method (AdEasy Vector Systems Manual, Quantum Biotechnologies, Canada). Working solutions of adenoviral vectors were diluted in storage buffer (Nyberg-Hoffman and Aguilar-Cordova, 1999), and stored at −80° C. until needed. […]

Egr2 mRNA = assay: Semi-quantitative RT-PCR of Egr2 mRNA in pGL10 cells; assay type: cell-based, mouse; conditions: pGL10 cells treated with ionomycin
Experimental: (§1) Induction of T cell anergy.
(§2) RT-PCR. Total RNA was extracted using Trizol, and cDNA was generated using oligo-dT as a primer. PCR™ was done with titrated doses of cDNA using primers specific for the following genes: […]
(§3) Between 36 and 39 cycles were performed at an annealing temperature of 55° C. Products were visualized on ethidium bromide-stained 1% agarose gels.

DGK-ζ mRNA = assay: Semi-quantitative RT-PCR of DGK-ζ mRNA in pGL10 cells; assay type: cell-based, mouse; conditions: pGL10 cells treated with ionomycin
Experimental: as §1, §2, §3

anergic Th1 cells [2] = assay: IL-2 production by anergic Th1 clone pGL10 (ELISA); assay type: cell-based, mouse
From the text: as §1

anergic Th1 cells [3] = assay: Toxicity of the DGK inhibitor to anergic Th1 cells; assay type: cell-based, mouse; conditions: higher concentrations (data not shown)
From the text: If increased DGK activity is contributing to diminished Ras activation and IL-2 production in the anergic state, then inhibition of this enzyme should result in increased IL-2 production by anergic cells. To explore this possibility, the pharmacologic inhibitor R59022 was employed (Jiang et al., 2000). […] Approximately 40% of this IL-2 production was recovered by stimulation with PMA+Ionomycin, arguing that that proportion was mediated by a proximal signaling defect.

DGKα = DGKα (Homo sapiens, UniProt P23743); conditions: cited from earlier work
Sequence of DGKα (P23743 whole entry, species assumed): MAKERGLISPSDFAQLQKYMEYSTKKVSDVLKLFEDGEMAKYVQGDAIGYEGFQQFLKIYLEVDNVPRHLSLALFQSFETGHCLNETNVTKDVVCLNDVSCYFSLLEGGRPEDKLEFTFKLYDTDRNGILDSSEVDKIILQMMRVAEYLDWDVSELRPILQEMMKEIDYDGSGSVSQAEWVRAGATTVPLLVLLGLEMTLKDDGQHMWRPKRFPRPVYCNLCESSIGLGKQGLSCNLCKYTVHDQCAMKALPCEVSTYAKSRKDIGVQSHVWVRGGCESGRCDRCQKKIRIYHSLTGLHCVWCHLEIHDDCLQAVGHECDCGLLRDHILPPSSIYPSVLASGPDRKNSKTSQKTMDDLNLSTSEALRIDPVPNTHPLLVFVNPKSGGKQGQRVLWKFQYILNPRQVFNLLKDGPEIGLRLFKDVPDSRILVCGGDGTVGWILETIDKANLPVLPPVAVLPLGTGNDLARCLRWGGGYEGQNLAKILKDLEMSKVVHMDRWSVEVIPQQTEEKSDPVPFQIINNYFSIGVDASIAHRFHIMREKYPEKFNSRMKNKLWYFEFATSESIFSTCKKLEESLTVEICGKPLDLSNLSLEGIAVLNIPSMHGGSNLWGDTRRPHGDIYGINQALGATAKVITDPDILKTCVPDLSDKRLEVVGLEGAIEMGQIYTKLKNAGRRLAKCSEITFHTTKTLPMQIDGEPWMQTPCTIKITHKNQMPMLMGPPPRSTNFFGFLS

anergic CAR Tg Th1 cells = assay: IL-2 production by anergic CAR Tg Th1 cells (ELISA); assay type: cell-based, mouse; conditions: stimulated with anti-CD3/anti-CD28 beads
From the text: Induction of T cell anergy. […] Adenoviral transduction of […] cells. […] T cell activation.

## CCCCCCCCCCCCCC(=O)O[C@@H]1[C@@H](C)[C@@]2(O)[C@@H](C=C(CO)C[C@]3(O)C(=O)C(C)=C[C@@H]23)[C@@H]2C(C)(C)[C@]12OC(C)=O [PMA]
[1]; cells transduced to express DGKα
  IL-2 production on addition of exogenous PMA: restored IL-2 production
[1]; cells transduced to express DGKζ
  IL-2 production on addition of exogenous PMA: restored IL-2 production

## C[C@H](CCC(=O)O)C[C@H](C)C[C@H](C)C(=O)/C=C(\O)[C@H](C)C[C@H](C)C/C=C/[C@@H](C)[C@@H](O)[C@@H](C)[C@@H](O)C[C@@H]1CC[C@@](C)([C@H]2CC[C@@](C)([C@@H](C)O)O2)O1 [ionomycin]
Egr2 mRNA
  Egr2 mRNA: only a minimal increase
DGK-ζ mRNA
  expression of DGK-ζ mRNA: upregulated

## Cc1nc2sccn2c(=O)c1CCN1CCC(=C(c2ccccc2)c2ccc(F)cc2)CC1 [R59022, 6-[2-(4-[(4-fluorophenyl)phenyl-methylene]-1-piperidinyl)ethyl]-7-methyl-5H-thiazolo[3,2-]pyrimidine-5-one]
Anergic Th1 cells [2]; anergic Th1 clone pGL10 stimulated with anti-CD3+anti-CD28, increasing concentrations, 25 min pre-incubation, ELISA
  recovery of IL-2 production: significant recovery of IL-2 production in a dose-dependent fashion
Anergic Th1 cells [2]; anergic cells, no anti-CD3/anti-CD28 stimulation (data not shown)
  cytokine release by the inhibitor alone: did not induce detectable cytokine release
Anergic Th1 cells [3]
  toxicity to the cells: toxic to the cells
DGKα
  DGK isoform preference: preferentially inhibits DGKα
Anergic CAR Tg Th1 cells
  IL-2 production: partially restored IL-2 production
